# How the values were obtained:
# Assay type in all cases: cell-based, human
# [1] = test system: OCI-MY5; assay: Colony formation on soft agar, OCI-MY5 myeloma cells; conditions: 1 h treatment, colonies after 10-14 days
# From the text: (§1) A two-layer agar system was used, and colonies were visualized after 10-14 days.
# [2] = test system: OPM2; assay: Colony formation on soft agar, OPM2 myeloma cells; conditions: 1 h treatment, colonies after 10-14 days
# From the text: as §1
# [3] = test system: GBM cells; assay: Cellular labile iron pool (Calcein-AM flow cytometry), GBM cells; conditions: increasing doses of ascorbate
# Description: (§2) The labile iron pool (LIP) was visualized using the fluorescent dye Calcein-AM as previously described (Epsztejn et al., 1997) with modifications. After labeling, samples were divided into two flow cytometry sample tubes, to which 100 μM 2′,2′-bipyridyl (BIP) was added to one tube and analyzed by flow cytometry. BIP tubes were incubated for at least 15 minutes before analysis to allow for full chelation of intracellular labile iron. The LIP (A.U.)=MFIBIP−MFINoBIP was normalized against the control samples to calculate the relative labile iron pool.
# (§3) The labile iron pool (LIP) was visualized using the fluorescent dye Calcein-AM as previously described with modifications (Epsztejn et al., 1997). Briefly, after sample treatment, cells were trypsinized, spun at 1,200 rpm for 5 min, and resuspended at approximately 1×10^6 cells mL-1 in 500 nM Calcein-AM in PBS. Samples were incubated for 15 min at 4% O2 in a humidity controlled environment (37° C., 5% CO2). Subsequently, samples were pelleted, washed in PBS, and resuspended in 1 mL PBS before dividing each sample into two flow cytometry sample tubes, to which 100 μM 2′,2′-bipyridyl (BIP) was added to one tube. Samples were kept at room temperature and analyzed on a LSR II Flow Cytometer (BD Biosciences; λex=488 nm, λem=515/20 nm). […]
# [4] = test system: HBEpCs; assay: Cellular labile iron pool (Calcein-AM flow cytometry), HBEpCs; conditions: increasing doses of ascorbate
# Description: as §2, §3
# [5] = test system: aconitase; assay: Total cellular aconitase activity after ascorbate exposure; conditions: 15 pmol cell^−1 ascorbate for 1 h, NSCLC cell lysates
# Description: (§4) Exponentially growing cells were scraped and frozen as dry pellets until assayed for total activity. Aconitase activity was measured as the rate of appearance of NADPH (at 340 nm; Beckman DU 800 spectrophotometer, Brea, Calif.) for 45 min during the reaction of 200 μg total sample protein with 200 μM NADP^+ and 10 U isocitrate dehydrogenase as previously described (Case et al., 2011). Maximal ETC complex activity was measured as previously described (Birch-Machin et al., 1994). Complex I activity was quantified as the rate of rotenone-inhibitable NADH oxidation (320 nm; c=6.22 mM^−1 cm^−1). Complex II activity as the difference in the rate of DCIP reduction in the presence and absence of succinate (at 600 nm; ε=19.1 mM^−1 cm^−1). Complex IV activity was assayed as the rate of oxidation of cytochrome c ([…]; ε=19.6 mM^−1 cm^−1). Rates of activities were normalized to total protein by Lowry.
# Exponentially growing cells were scraped and frozen as dry pellets until assayed for total aconitase activity adapted from as previously described (Case et al., 2011). […] Protein was quantified by the Lowry method (Lowry et al., 1951). Aconitase activity was measured as the rate of appearance of NADPH (at 340 nm; Beckman DU 800 spectrophotometer, Brea, Calif.) for 45 min during the reaction of 200 μg total sample protein with 200 μM NADP+ and 10 U isocitrate dehydrogenase.
# [6] = test system: ETC complex IV; assay: ETC complex IV activity after ascorbate exposure; conditions: NSCLC cell lysates
# Description: as §4
# Exponentially growing cells were scraped and frozen as dry pellets until assayed for protein content (Lowry) and maximal ETC complex activity as previously described (Birch-Machin et al., 1994). Briefly, dry cell pellets were resuspended in 20 mM potassium phosphate buffer and sonicated 3×10 s each. Rates of activities were normalized to total protein. Complex I activity was quantified as the rate of rotenone-inhibitable NADH oxidation (320 nm; ε=6.22 mM-1 cm-1). […]
# [7] = test system: HBEpCs; assay: Intracellular H2O2 with PeroxyOrange-1, HBEpCs; conditions: ascorbate 15 pmol cell^−1
# Description: To visualize intracellular H2O2 levels, the selectively sensitive fluorescent probe PeroxyOrange-1 was utilized as previously described with modifications (Dickinson et al., 2010). 1×10^5 cells were plated and grown in their respective media for 48 h. The complete protocol was conducted in the dark with minimal ambient lighting. Cells were washed with PBS and incubated with 10 uM PO-1 in phenol red free RPMI supplemented with HBE growth supplements for 1 h at 37° C. Cells were then washed in PBS and placed back in phenol red free RPMI supplemented with HBE growth supplements. […] At times indicated, cells were placed on ice for the remainder of the protocol, washed, and trypsinized with phenol red free 0.5% trypsin. After 15 min, cells still attached were scraped and all cells were collected in 15 mL conical vials containing PBS+10% FBS to neutralize the trypsin reaction. Cells were spun at 1200 rpm for 5 min at 4° C., resuspended in 300-500 uL PBS and were run on a LSR II Flow Cytometer (BD Biosciences) with λex=561 nm, λem=585/20 nm. The mean fluorescence intensity (MFI) was analyzed (FlowJo™) and corrected for autoflourescence against unlabeled cells. Normalized MFI was calculated by comparing MFI for a given treatment group against control.
smiles,measurement,setting,value
"O=C1O[C@H]([C@@H](O)CO)C(O)=C1O [ascorbate, L-ascorbic acid]",ascorbate dose giving complete growth inhibition (colony formation),[1],≥ 10 pmol/cell
same,ascorbate dose giving complete growth inhibition (colony formation),[2],≥ 10 pmol/cell
same,cellular LIP after ascorbate,[3],significant dose-dependent ascorbate-induced increases in cellular LIP
same,cellular LIP after ascorbate,[4],not seen
same,aconitase activity,[5],inactivation
same,ETC complex IV activity,[6],no inhibition of activity
same,steady-state levels of H2O2 (PeroxyOrange-1),[7],unchanged

# Reference: patent US10052304B2, “Compositions and methods for cancer therapy” (UNIVERSITY OF IOWA RESEARCH FOUNDATION, priority 2015, dated 2018)
